Reference: patent US7777047B2, “Indole compound” (Takeda Pharmaceutical Company Limited, priority 2006, dated 2010)

**Q.** For Cc1ccc(N(C)S(=O)(=O)c2cccs2)c2[nH]c(-c3ncc(CN4CCC(O)C4)s3)cc12 (centres unmarked) [Example 251, N-(2-{5-[(3-hydroxypyrrolidin-1-yl)methyl]-1,3-thiazol-2-yl}-4-methyl-1H-indol-7-yl)-N-methylthiophene-2-sulfonamide], which melting point is on record?
**A.** 190 to 191 °C

**Q.** For CCOC(=O)CC1CN=C(c2cc3cccc(N(C)S(=O)(=O)c4cccs4)c3[nH]2)S1 (centres unmarked) [Example 283, ethyl (2-{7-[methyl(2-thienylsulfonyl)amino]-1H-indol-2-yl}-4,5-dihydro-1,3-thiazol-5-yl)acetate], which melting point is on record?
**A.** 101 to 102 °C

**Q.** Which melting point does the source give for CN(c1cccc2cc(C3=NCC(CC(=O)O)S3)[nH]c12)S(=O)(=O)c1cccs1 (centres unmarked) [Example 284, (2-{7-[methyl(2-thienylsulfonyl)amino]-1H-indol-2-yl}-4,5-dihydro-1,3-thiazol-5-yl)acetic acid] here?
**A.** 232 to 234 °C

**Q.** Which melting point does the source give for CN(c1cccc2cc(C3=NCC(CCO)S3)[nH]c12)S(=O)(=O)c1cccs1 (centres unmarked) [Example 285, N-{2-[5-(2-hydroxyethyl)-4,5-dihydro-1,3-thiazol-2-yl]-1H-indol-7-yl}-N-methylthiophene-2-sulfonamide] here?
**A.** 174 to 175 °C

**Q.** For CN1CCN(C(=O)CC2CN=C(c3cc4cccc(N(C)S(=O)(=O)c5cccs5)c4[nH]3)S2)CC1 (centres unmarked) [Example 286, N-methyl-N-(2-{5-[2-(4-methylpiperazin-1-yl)-2-oxoethyl]-4,5-dihydro-1,3-thiazol-2-yl}-1H-indol-7-yl)thiophene-2-sulfonamide], which melting point is on record?
**A.** 151 to 153 °C

**Q.** With CN(c1cccc2cc(C3=NCC(CC(N)=O)S3)[nH]c12)S(=O)(=O)c1cccs1 (centres unmarked) [Example 287, 2-(2-{7-[methyl(2-thienylsulfonyl)amino]-1H-indol-2-yl}-4,5-dihydro-1,3-thiazol-5-yl)acetamide] as the compound, how does the melting point read?
**A.** 193 to 194 °C

**Q.** Which melting point does the source give for CN(c1cccc2cc(C3=NCC(CCN4C(=O)CCC4=O)S3)[nH]c12)S(=O)(=O)c1cccs1 (centres unmarked) [Example 288, N-(2-{5-[2-(2,5-dioxopyrrolidin-1-yl)ethyl]-4,5-dihydro-1,3-thiazol-2-yl}-1H-indol-7-yl)-N-methylthiophene-2-sulfonamide] here?
**A.** 189 to 191 °C

**Q.** With CCOC(=O)CC1CN=C(c2cc3c(C)ccc(N(C)S(=O)(=O)c4cccs4)c3[nH]2)S1 (centres unmarked) [Example 290, ethyl (2-{4-methyl-7-[methyl(2-thienylsulfonyl)amino]-1H-indol-2-yl}-4,5-dihydro-1,3-thiazol-5-yl)acetate] as the compound, how does the melting point read?
**A.** 109 to 110 °C

**Q.** For Cc1ccc(N(C)S(=O)(=O)c2cccs2)c2[nH]c(C3=NCC(CCO)S3)cc12 (centres unmarked) [Example 291, N-{2-[5-(2-hydroxyethyl)-4,5-dihydro-1,3-thiazol-2-yl]-4-methyl-1H-indol-7-yl}-N-methylthiophene-2-sulfonamide], which melting point is on record?
**A.** 168 to 169 °C

**Q.** With Cc1ccc(N(C)S(=O)(=O)c2cccs2)c2[nH]c(C3=NCC(CC(=O)O)S3)cc12 (centres unmarked) [Example 292, (2-{4-methyl-7-[methyl(2-thienylsulfonyl)amino]-1H-indol-2-yl}-4,5-dihydro-1,3-thiazol-5-yl)acetic acid] as the compound, how does the melting point read?
**A.** 269 to 270 °C

**Q.** For Cc1ccc(N(C)S(=O)(=O)c2cccs2)c2[nH]c(C3=NCC(CC(N)=O)S3)cc12 (centres unmarked) [Example 293, 2-(2-{4-methyl-7-[methyl(2-thienylsulfonyl)amino]-1H-indol-2-yl}-4,5-dihydro-1,3-thiazol-5-yl)acetamide], which melting point is on record?
**A.** 120 to 121 °C

**Q.** Which melting point does the source give for CN(C)C(=O)CC1CN=C(c2cc3cccc(N(C)S(=O)(=O)c4cccs4)c3[nH]2)S1 (centres unmarked) [Example 294, N,N-dimethyl-2-(2-{7-[methyl(2-thienylsulfonyl)amino]-1H-indol-2-yl}-4,5-dihydro-1,3-thiazol-5-yl)acetamide] here?
**A.** 153 to 154 °C

**Q.** For O=S(=O)(Nc1cccc2cc(C3=NCC(CCO)S3)[nH]c12)c1cccs1 (centres unmarked) [Example 295, N-{2-[5-(2-hydroxyethyl)-4,5-dihydro-1,3-thiazol-2-yl]-1H-indol-7-yl}thiophene-2-sulfonamide], which melting point is on record?
**A.** 156 to 158 °C

**Q.** For O=C(O)CC1CN=C(c2cc3cccc(NS(=O)(=O)c4cccs4)c3[nH]2)S1 (centres unmarked) [Example 296, (2-{7-[(2-thienylsulfonyl)amino]-1H-indol-2-yl}-4,5-dihydro-1,3-thiazol-5-yl)acetic acid], which melting point is on record?
**A.** > 240 °C (dec.)

**Q.** Which melting point does the source give for NC(=O)CC1CN=C(c2cc3cccc(NS(=O)(=O)c4cccs4)c3[nH]2)S1 (centres unmarked) [Example 297, 2-(2-{7-[(2-thienylsulfonyl)amino]-1H-indol-2-yl}-4,5-dihydro-1,3-thiazol-5-yl)acetamide] here?
**A.** 130 to 131 °C

**Q.** With CON(C)C(=O)CC1CN=C(c2cc3cccc(N(C)S(=O)(=O)c4cccs4)c3[nH]2)S1 (centres unmarked) [Example 299, N-methoxy-N-methyl-2-(2-{7-[methyl(2-thienylsulfonyl)amino]-1H-indol-2-yl}-4,5-dihydro-1,3-thiazol-5-yl)acetamide] as the compound, how does the melting point read?
**A.** 153 to 154 °C

**Q.** With CC(=O)CC1CN=C(c2cc3cccc(N(C)S(=O)(=O)c4cccs4)c3[nH]2)S1 (centres unmarked) [Example 300, N-methyl-N-{2-[5-(2-oxopropyl)-4,5-dihydro-1,3-thiazol-2-yl]-1H-indol-7-yl}thiophene-2-sulfonamide] as the compound, how does the melting point read?
**A.** 123 to 124 °C

**Q.** Which melting point does the source give for C=CC(=O)CC1CN=C(c2cc3cccc(N(C)S(=O)(=O)c4cccs4)c3[nH]2)S1 (centres unmarked) [Example 301, N-methyl-N-{2-[5-(2-oxobut-3-en-1-yl)-4,5-dihydro-1,3-thiazol-2-yl]-1H-indol-7-yl}thiophene-2-sulfonamide] here?
**A.** 157 to 158 °C

**Q.** With CN1CCC(CC2CN=C(c3cc4cccc(N(C)S(=O)(=O)c5cccs5)c4[nH]3)S2)=N1 (centres unmarked) [Example 302, N-methyl-N-(2-{5-[(1-methyl-4,5-dihydro-1H-pyrazol-3-yl)methyl]-4,5-dihydro-1,3-thiazol-2-yl}-1H-indol-7-yl)thiophene-2-sulfonamide] as the compound, how does the melting point read?
**A.** 149 to 150 °C

**Q.** Which melting point does the source give for CN(c1cccc2cc(C3=NCC(CN4CCSCC4)S3)[nH]c12)S(=O)(=O)c1ccccn1 (centres unmarked) [Example 303, N-methyl-N-{2-[5-(thiomorpholinomethyl)-4,5-dihydro-1,3-thiazol-2-yl]-1H-indol-7-yl}pyridine-2-sulfonamide] here?
**A.** 142 to 144 °C

**Q.** With CN(c1cccc2cc(C3=NCC(CN4CC[S+]([O-])CC4)S3)[nH]c12)S(=O)(=O)c1ccccn1 (centres unmarked) [Example 304, N-methyl-N-(2-{5-[(1-oxidothiomorpholino)methyl]-4,5-dihydro-1,3-thiazol-2-yl}-1H-indol-7-yl)pyridine-2-sulfonamide] as the compound, how does the melting point read?
**A.** 193 to 194 °C

**Q.** For COc1ccccc1S(=O)(=O)N(C)c1cccc2cc(C3=NCC(CCO)S3)[nH]c12 (centres unmarked) [Example 306, N-{2-[5-(2-hydroxyethyl)-4,5-dihydro-1,3-thiazol-2-yl]-1H-indol-7-yl}-2-methoxy-N-methylbenzenesulfonamide], which melting point is on record?
**A.** 154 to 155 °C

**Q.** For COc1ccccc1S(=O)(=O)N(C)c1cccc2cc(C3=NCC(CC(=O)O)S3)[nH]c12 (centres unmarked) [Example 307, (2-{7-[[(2-methoxyphenyl)sulfonyl](methyl)amino]-1H-indol-2-yl}-4,5-dihydro-1,3-thiazol-5-yl)acetic acid], which melting point is on record?
**A.** 197 to 198 °C

**Q.** With COc1ccccc1S(=O)(=O)N(C)c1cccc2cc(C3=NCC(CC(N)=O)S3)[nH]c12 (centres unmarked) [Example 308, 2-(2-{7-[[(2-methoxyphenyl)sulfonyl](methyl)amino]-1H-indol-2-yl}-4,5-dihydro-1,3-thiazol-5-yl)acetamide] as the compound, how does the melting point read?
**A.** 227 to 228 °C

**Q.** Which melting point does the source give for COc1ccccc1S(=O)(=O)N(C)c1cccc2cc(C3=NCC(CC(=O)Nc4nnc[nH]4)S3)[nH]c12 (centres unmarked) [Example 310, 2-(2-{7-[[(2-methoxyphenyl)sulfonyl](methyl)amino]-1H-indol-2-yl}-4,5-dihydro-1,3-thiazol-5-yl)-N-4H-1,2,4-triazol-3-ylacetamide] here?
**A.** 208 to 209 °C

**Q.** With COc1ccccc1S(=O)(=O)N(C)c1cccc2cc(C3=NCC(CC(=O)N4CCC(O)CC4)S3)[nH]c12 (centres unmarked) [Example 311, N-(2-{5-[2-(4-hydroxypiperidino)-2-oxoethyl]-4,5-dihydro-1,3-thiazol-2-yl}-1H-indol-7-yl)-2-methoxy-N-methylbenzenesulfonamide] as the compound, how does the melting point read?
**A.** 166 to 167 °C

**Q.** Which melting point does the source give for CN(c1cccc2cc(C3=NCC(CC(=O)O)S3)[nH]c12)S(=O)(=O)c1ccccc1C(F)(F)F (centres unmarked) [Example 314, {2-[7-(methyl{[2-(trifluoromethyl)phenyl]sulfonyl}amino)-1H-indol-2-yl]-4,5-dihydro-1,3-thiazol-5-yl}acetic acid] here?
**A.** 170 to 172 °C

**Q.** With CN(c1cccc2cc(C3=NCC(CCO)S3)[nH]c12)S(=O)(=O)c1ccccc1C(F)(F)F (centres unmarked) [Example 315, N-{2-[5-(2-hydroxyethyl)-4,5-dihydro-1,3-thiazol-2-yl]-1H-indol-7-yl}-N-methyl-2-(trifluoromethyl)benzenesulfonamide] as the compound, how does the melting point read?
**A.** 153 to 154 °C

**Q.** For CN(c1cccc2cc(C3=NCC(CC(=O)N4CCC[C@H]4C(=O)O)S3)[nH]c12)S(=O)(=O)c1ccccc1C(F)(F)F (stereo partly drawn) [Example 316, 1-({2-[7-(methyl{[2-(trifluoromethyl)phenyl]sulfonyl}amino)-1H-indol-2-yl]-4,5-dihydro-1,3-thiazol-5-yl}acetyl)-L-proline], which melting point is on record?
**A.** 132 to 135 °C

**Q.** Which melting point does the source give for CN(c1cccc2cc(C3=NCC(CN4CCS(=O)(=O)CC4)S3)[nH]c12)S(=O)(=O)c1ccccn1 (centres unmarked) [Example 318, N-(2-{5-[(1,1-dioxidothiomorpholino)methyl]-4,5-dihydro-1,3-thiazol-2-yl}-1H-indol-7-yl)-N-methylpyridine-2-sulfonamide] here?
**A.** 188 to 189 °C

**Q.** For CN(c1cccc2cc(C3=NCC(CN4CC[S+]([O-])CC4)S3)[nH]c12)S(=O)(=O)c1nccn1C (centres unmarked) [Example 320, N,1-dimethyl-N-(2-{5-[(1-oxidothiomorpholino)methyl]-4,5-dihydro-1,3-thiazol-2-yl}-1H-indol-7-yl)-1H-imidazole-2-sulfonamide], which melting point is on record?
**A.** 161 to 162 °C

**Q.** For CN(c1cc(OCCCS(C)(=O)=O)cc2cc(C3=NCC(CN4CCOCC4)S3)[nH]c12)S(=O)(=O)c1ccccn1 (centres unmarked) [Example 321, N-methyl-N-{5-[3-(methylsulfonyl)propoxy]-2-[5-(morpholinomethyl)-4,5-dihydro-1,3-thiazol-2-yl]-1H-indol-7-yl}pyridine-2-sulfonamide], which melting point is on record?
**A.** 168 to 169 °C
